Experimental data taken from ChEMBL document CHEMBL1158312, “Cytotoxic triterpenes from a marine sponge, Stelletta sp” (J Nat Prod, 1996).
Activity calls are given as the source filed them.

How the values were obtained:
[1] = biological target: T1, Retinoic acid receptor RXR-alpha (Homo sapiens) (UniProt P19793); assay: Binding affinity to human RXRalpha assessed as induction of receptor conformational change at 1 uM
T1 sequence (whole entry): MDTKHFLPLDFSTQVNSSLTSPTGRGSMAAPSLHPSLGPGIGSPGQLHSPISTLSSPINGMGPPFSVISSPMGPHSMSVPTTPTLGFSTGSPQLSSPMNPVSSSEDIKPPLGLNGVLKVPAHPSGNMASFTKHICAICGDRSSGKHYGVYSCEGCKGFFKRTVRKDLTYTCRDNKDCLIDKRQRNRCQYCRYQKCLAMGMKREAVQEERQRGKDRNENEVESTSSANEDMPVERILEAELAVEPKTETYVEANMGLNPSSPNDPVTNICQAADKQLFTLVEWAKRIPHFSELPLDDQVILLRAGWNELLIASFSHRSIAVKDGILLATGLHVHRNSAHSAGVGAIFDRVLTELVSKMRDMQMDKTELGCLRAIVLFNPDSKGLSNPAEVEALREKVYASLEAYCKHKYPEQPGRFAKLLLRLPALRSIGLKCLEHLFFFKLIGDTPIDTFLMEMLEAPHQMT

[2] = biological target: T2, Retinoic acid receptor RXR-alpha (Mus musculus) (UniProt P28700); assay: Binding affinity to mouse RXRalpha assessed as induction of receptor conformational change at 1 uM
T2 sequence (whole entry): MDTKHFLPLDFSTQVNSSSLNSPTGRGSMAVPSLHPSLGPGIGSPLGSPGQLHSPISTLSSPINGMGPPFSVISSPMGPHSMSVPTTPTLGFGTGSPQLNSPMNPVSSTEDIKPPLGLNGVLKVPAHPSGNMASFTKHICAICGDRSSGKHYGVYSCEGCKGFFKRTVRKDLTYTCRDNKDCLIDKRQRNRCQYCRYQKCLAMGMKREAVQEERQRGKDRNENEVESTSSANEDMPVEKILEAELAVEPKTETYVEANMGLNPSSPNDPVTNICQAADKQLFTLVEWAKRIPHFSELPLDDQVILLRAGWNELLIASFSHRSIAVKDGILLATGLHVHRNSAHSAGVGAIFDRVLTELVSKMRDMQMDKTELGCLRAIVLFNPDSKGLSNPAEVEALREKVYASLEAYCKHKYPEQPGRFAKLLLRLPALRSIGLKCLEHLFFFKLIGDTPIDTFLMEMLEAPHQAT

[3] = biological target: T2, Retinoic acid receptor RXR-alpha (Mus musculus); assay: Antagonist activity at mouse RXRalpha assessed as inhibition of 9-cis-retinoic acid-induced response by differential proteolytic sensitivity assay; type: functional

Measured: Activity

C/C(=C/C=C/C(C)=C/C=C/C(C)=C1\C(=O)C[C@H]2[C@@]3(C)CCC(=O)C(C)(C)[C@@H]3CC[C@]12C)C(=O)O
inactive: all assays above

CC(/C=C/C=C(\C)c1ccc(C)c(=O)o1)=C1/C(=O)C[C@H]2[C@@]3(C)CCC(=O)C(C)(C)[C@@H]3CC[C@]12C
inactive: all assays above
